Where a name gives a salt, the structure may show the parent alone.
Assays:
LY2 = test: Antiproliferation test, LY-2 human breast cancer cells (MCF-7 variant resistant to tamoxifen); format: cell-based; conditions: for IC50: Homo sapiens, MCF7, 168 h, read-out: TRIPHENYLETHYLENE IC50's AGAINST BREAST CANCER CELLS, IC50, Cell line LY2; for IC50 compared with tamoxifen, in words (both cell lines: LY-2): statement in words
Experimental: (§1) Antiproliferation test Procedure:
(§2) The tests were conducted in 96-well microtiter plates. 5×10^3 cells were added to each well. Culture medium and drug solutions were added to wells with a Perkin Elmer Cetus PRO/PETTE. The culture medium was IMEM supplemented with 5% fetal bovine serum. Eight drug concentrations were tested, in duplicate, from 0.078 micromolar (μM) to 10 μM. After four days incubation the medium was replaced with fresh medium containing drug, and after a total of seven days, the cell monolayers were fixed with trichloracetic acid and stained with sulforhodamine dye. Absorbances (492 nm) of the extracted dye solutions were measured with a Titertek Multiscan plate reader.

MCF-7 = test: Antiproliferation test, MCF-7 human breast cancer cells (tamoxifen-sensitive); format: cell-based; conditions: for IC50: Homo sapiens, MCF7, 168 h, read-out: TRIPHENYLETHYLENE IC50's AGAINST BREAST CANCER CELLS, IC50, Cell line MCF-7; for IC50 compared with tamoxifen, in words (both cell lines: MCF-7): statement in words
Experimental: as §1, §2

Structure (SMILES) | IC50 (LY2) [µM] | IC50 compared with tamoxifen, in words (both cell lines: LY-2) (LY2) | IC50 (MCF-7) [µM] | IC50 compared with tamoxifen, in words (both cell lines: MCF-7) (MCF-7)
CCN(CC)CCCc1ccc(C(=C(Cl)c2ccccc2)c2ccccc2)cc1 [MDL 6866F, 1-[p-γ-diethylaminopropyl)phenyl]-1,2-diphenylchloroethylene dihydrogen citrate] | 1.6 | lower than the IC50 values of tamoxifen | 0.32 | lower than the IC50 values of tamoxifen
CCN(CC)CCSc1ccc(C(=C(Cl)c2ccccc2)c2ccccc2)cc1 [MDL 10007F, 2-[p-(2-Chloro-1,2-diphenylvinyl)-phenylthio]triethylamine Dihydrogen Citrate] | 1 | lower than the IC50 values of tamoxifen | 0.37 | lower than the IC50 values of tamoxifen
CCN(CC)CCNc1ccc(C(=C(Cl)c2ccccc2)c2ccccc2)cc1 [MDL 10222F, 2-[p-(2-Chloro-1,2-diphenylvinyl)-anilino]triethylamine Dihydrogen Citrate] | 3.8 | lower than the IC50 values of tamoxifen | 0.7 | lower than the IC50 values of tamoxifen
